Experimental data as given in article PMC2229574 (The Journal of General Physiology, 2003).
Like-named read-outs stand apart in the source and are kept apart here.

Assays:
[1] = target: wild-type mouse AChR (α2βδɛ) (Mus musculus, UniProt P02716+P04756+P20782); conditions: wt; for L2: choline (Table III / text)
[2] = target: mouse AChR αD97I (Mus musculus, UniProt P02716+P04756+P20782, D117I)
[3] = target: mouse AChR αD97L (Mus musculus, UniProt P02716+P04756+P20782, D117L)
[4] = target: mouse AChR αD97V (Mus musculus, UniProt P02716+P04756+P20782, D117V)
[5] = target: mouse AChR αD97N (Mus musculus, UniProt P02716+P04756+P20782, D117N)
[6] = target: mouse AChR αD97P (Mus musculus, UniProt P02716+P04756+P20782, D117P); conditions: for α2 (diliganded channel closing rate constant): 0.4 mM choline; for β2 (diliganded channel opening rate constant): 20 mM choline; for L2 (diliganded gating equilibrium constant, β2/α2) / L2-ratio (mut/wt): choline
[7] = target: mouse AChR αD97G (Mus musculus, UniProt P02716+P04756+P20782, D117G); conditions: for β2 (diliganded channel opening rate constant): 20 mM choline
[8] = target: mouse AChR αD97C (Mus musculus, UniProt P02716+P04756+P20782, D117C)
[9] = target: mouse AChR αD97M (Mus musculus, UniProt P02716+P04756+P20782, D117M)
[10] = target: mouse AChR αD97Y (Mus musculus, UniProt P02716+P04756+P20782, D117Y)
[11] = target: mouse AChR αD97H (Mus musculus, UniProt P02716+P04756+P20782, D117H); conditions: for L2: kinetic modeling, Scheme I

Chain of mouse AChR αD97V (P04756 21-457 D117V): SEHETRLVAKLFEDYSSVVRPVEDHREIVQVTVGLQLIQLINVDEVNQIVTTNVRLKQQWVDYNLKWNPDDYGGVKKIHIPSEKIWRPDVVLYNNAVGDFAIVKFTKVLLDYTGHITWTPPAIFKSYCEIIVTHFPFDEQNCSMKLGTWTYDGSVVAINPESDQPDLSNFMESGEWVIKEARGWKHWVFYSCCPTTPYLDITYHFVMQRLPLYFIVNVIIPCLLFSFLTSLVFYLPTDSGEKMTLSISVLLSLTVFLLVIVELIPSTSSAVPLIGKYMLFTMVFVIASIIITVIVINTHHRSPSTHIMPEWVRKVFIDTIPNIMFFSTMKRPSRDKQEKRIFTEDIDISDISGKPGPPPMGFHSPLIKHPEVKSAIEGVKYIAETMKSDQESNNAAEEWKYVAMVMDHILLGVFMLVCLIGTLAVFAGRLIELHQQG
Chain of mouse AChR αD97V (P09690 24-501 partner): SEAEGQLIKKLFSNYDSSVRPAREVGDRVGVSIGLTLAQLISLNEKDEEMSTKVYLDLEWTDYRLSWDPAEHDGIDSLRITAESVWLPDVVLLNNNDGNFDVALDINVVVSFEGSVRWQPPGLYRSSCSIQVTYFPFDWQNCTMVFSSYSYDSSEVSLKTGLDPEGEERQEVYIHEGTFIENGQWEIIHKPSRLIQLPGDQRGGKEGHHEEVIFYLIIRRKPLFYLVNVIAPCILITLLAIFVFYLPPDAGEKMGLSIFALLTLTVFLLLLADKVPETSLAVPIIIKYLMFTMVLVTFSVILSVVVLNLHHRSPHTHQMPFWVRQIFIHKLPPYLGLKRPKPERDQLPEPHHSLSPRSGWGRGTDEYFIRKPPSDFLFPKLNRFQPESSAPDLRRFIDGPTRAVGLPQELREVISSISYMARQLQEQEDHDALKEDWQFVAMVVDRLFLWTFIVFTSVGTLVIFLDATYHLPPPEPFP
Chain of mouse AChR αD97V (P02716 25-520): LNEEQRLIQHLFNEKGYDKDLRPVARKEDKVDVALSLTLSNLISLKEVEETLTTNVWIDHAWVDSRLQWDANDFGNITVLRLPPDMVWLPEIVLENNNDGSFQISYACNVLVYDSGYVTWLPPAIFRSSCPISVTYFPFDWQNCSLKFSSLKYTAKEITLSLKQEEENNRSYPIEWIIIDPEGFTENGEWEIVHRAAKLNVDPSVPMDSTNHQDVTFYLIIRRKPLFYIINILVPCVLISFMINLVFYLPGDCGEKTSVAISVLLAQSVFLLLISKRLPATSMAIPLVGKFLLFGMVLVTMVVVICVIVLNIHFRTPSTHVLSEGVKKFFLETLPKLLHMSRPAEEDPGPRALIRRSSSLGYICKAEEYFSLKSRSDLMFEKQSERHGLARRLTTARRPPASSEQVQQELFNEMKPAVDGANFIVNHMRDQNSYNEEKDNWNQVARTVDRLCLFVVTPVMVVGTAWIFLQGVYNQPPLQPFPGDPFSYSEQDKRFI
Chain of mouse AChR αD97V (P20782 21-493, stated change not applied): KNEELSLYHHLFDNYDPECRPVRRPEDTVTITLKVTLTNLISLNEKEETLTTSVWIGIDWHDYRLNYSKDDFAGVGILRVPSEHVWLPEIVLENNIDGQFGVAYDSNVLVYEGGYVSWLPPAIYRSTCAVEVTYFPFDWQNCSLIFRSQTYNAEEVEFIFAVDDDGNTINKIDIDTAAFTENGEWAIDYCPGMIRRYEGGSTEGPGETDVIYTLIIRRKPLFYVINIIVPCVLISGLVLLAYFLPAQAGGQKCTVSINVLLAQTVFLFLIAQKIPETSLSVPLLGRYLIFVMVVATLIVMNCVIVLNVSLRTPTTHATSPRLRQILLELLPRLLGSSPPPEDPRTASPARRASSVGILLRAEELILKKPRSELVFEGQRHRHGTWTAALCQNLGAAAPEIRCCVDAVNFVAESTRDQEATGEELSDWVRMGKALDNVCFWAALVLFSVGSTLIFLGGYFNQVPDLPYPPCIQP
Chain of mouse AChR αD97Y (P04756 21-457 D117Y): as the sequence (P04756 21-457 D117V) above, with V97Y counted along it
Chain of mouse AChR αD97Y (P09690 24-501 partner): as the sequence (P09690 24-501 partner) above
Chain of mouse AChR αD97Y (P02716 25-520): as the sequence (P02716 25-520) above
Chain of mouse AChR αD97Y (P20782 21-493, stated change not applied): as the sequence (P20782 21-493, stated change not applied) above

β2 (channel opening rate constant) ([1]; 20 mM choline (Table VIII)): 100 s⁻¹
α2* (apparent channel closing rate constant) ([1]; 20 mM choline, ∼2-fold smaller than α2 because of channel block): 1,100 s^−1
β2 ([1]; choline (Table III / Fig. 4)): 100 s⁻¹
L2 [1]: 0.05
L2 ([1]; listed as Choline): 0.047
α2 ([1]; choline (Table III)): 2,100 s^−1
L2-ratio (mut/wt) ([2]; choline): 0.45
L2-ratio (mut/wt) ([3]; choline): 0.71
L2-ratio (mut/wt) ([4]; choline): 1.71
L2-ratio (mut/wt) ([5]; choline): 2.37
L2-ratio (mut/wt) ([6]; αD97P kinetic mode P1): 2.97
L2-ratio (mut/wt) ([6]; αD97P kinetic mode P2): 12.88
L2-ratio (mut/wt) ([7]; αD97G kinetic mode G1, choline): 4.20
L2-ratio (mut/wt) ([8]; choline): 5.13
L2-ratio (mut/wt) ([9]; choline): 7.78
L2-ratio (mut/wt) ([10]; choline): 14.72
L2-ratio (mut/wt) ([11]; choline): 19.94
L2 (equilibrium gating constant) from Popen dose–response analysis ([11]; choline, fit by Eq. 2): 1.1 ± 0.5
L2 ([11]; choline): 1.2 ± 0.1
L2 ([11]; choline, listed as Choline): 1.15 ± 0.14
SMILES: C[N+](C)(C)CCO [choline]
α2 (diliganded channel closing rate constant) ([1]; 0.4 mM choline): 2,100 s^−1
β2 (diliganded channel opening rate constant) ([1]; 20 mM choline): 100 s⁻¹
L2 (diliganded gating equilibrium constant, β2/α2) ([1]; choline): 0.048
α2 (diliganded channel closing rate constant) ([2]; 0.4 mM choline): 2,801 s^−1
β2 (diliganded channel opening rate constant) ([2]; 20 mM choline): 60 s⁻¹
L2 (diliganded gating equilibrium constant, β2/α2) ([2]; choline): 0.022
α2 (diliganded channel closing rate constant) ([3]; 0.4 mM choline): 2,684 s^−1
β2 (diliganded channel opening rate constant) ([3]; 20 mM choline): 91 s⁻¹
L2 (diliganded gating equilibrium constant, β2/α2) ([3]; choline): 0.034
α2 (diliganded channel closing rate constant) ([4]; 0.4 mM choline): 1,974 s^−1
β2 (diliganded channel opening rate constant) ([4]; 20 mM choline): 161 s⁻¹
L2 (diliganded gating equilibrium constant, β2/α2) ([4]; choline): 0.082
α2 (diliganded channel closing rate constant) ([5]; 0.4 mM choline): 2,379 s^−1
β2 (diliganded channel opening rate constant) ([5]; 20 mM choline): 268 s⁻¹
L2 (diliganded gating equilibrium constant, β2/α2) ([5]; choline): 0.113
α2 (diliganded channel closing rate constant) ([6]; αD97P kinetic mode P1): 2,276 s^−1
β2 (diliganded channel opening rate constant) ([6]; αD97P kinetic mode P1): 322 s⁻¹
L2 (diliganded gating equilibrium constant, β2/α2) ([6]; αD97P kinetic mode P1): 0.141
α2 (diliganded channel closing rate constant) ([6]; αD97P kinetic mode P2): 2,276 s^−1
β2 (diliganded channel opening rate constant) ([6]; αD97P kinetic mode P2): 1,396 s^−1
L2 (diliganded gating equilibrium constant, β2/α2) ([6]; αD97P kinetic mode P2): 0.613
α2 (diliganded channel closing rate constant) ([7]; αD97G kinetic mode G1, 0.4 mM choline): 2,105 s^−1
β2 (diliganded channel opening rate constant) ([7]; αD97G kinetic mode G1): 421 s⁻¹
L2 (diliganded gating equilibrium constant, β2/α2) ([7]; αD97G kinetic mode G1, choline): 0.200
β2 (diliganded channel opening rate constant) ([7]; αD97G kinetic mode G2): 570 s⁻¹
L2 (diliganded gating equilibrium constant, β2/α2) ([7]; αD97G kinetic mode G2, choline): 0.605
α2 (diliganded channel closing rate constant) ([8]; 0.4 mM choline): 2,172 s^−1
β2 (diliganded channel opening rate constant) ([8]; 20 mM choline): 531 s⁻¹
L2 (diliganded gating equilibrium constant, β2/α2) ([8]; choline): 0.244
α2 (diliganded channel closing rate constant) ([9]; 0.4 mM choline): 2,255 s^−1
β2 (diliganded channel opening rate constant) ([9]; 20 mM choline): 835 s⁻¹
L2 (diliganded gating equilibrium constant, β2/α2) ([9]; choline): 0.370
α2 (diliganded channel closing rate constant) ([10]; 0.4 mM choline): 1,992 s^−1
β2 (diliganded channel opening rate constant) ([10]; 20 mM choline): 1,396 s^−1
L2 (diliganded gating equilibrium constant, β2/α2) ([10]; choline): 0.701
α2 (diliganded channel closing rate constant) ([11]; 0.4 mM choline): 1,938 s^−1
β2 (diliganded channel opening rate constant) ([11]; 20 mM choline): 1,840 s^−1
L2 (diliganded gating equilibrium constant, β2/α2) ([11]; choline): 0.949
